Experimental findings from US20190183959A1, “COMPOSITIONS, KITS AND METHODS FOR TREATING TYPE II DIABETES MELLITUS” (VITNOVO, INC., priority 2017, published 2019) are described below.

For this assay, the system named is NIDDM mice. As to the kind of experiment: Oral glucose tolerance test after 28 days of oral dosing in NIDDM db/db mice (Example 2). Type of assay: in vivo, mouse. The settings on record: HC extract 80 mg/Kg, sitagliptin 40 mg/Kg, p.o. How it is done: Non-insulin dependent diabetic mellitus (NIDDM) male db/db (BKS.Cg-Dock 7^m+/+Lepr^db/JNarl) were used in the present study. They were supplied by National Laboratory Animal Center (NLAC) (Taipei, Taiwan) or by Jackson Laboratory (Bar Harbor, Me., USA). […] In Example 2, test compounds (i.e., HC extract (40 mg/Kg from day 1 to day 14; 80 mg/Kg from day 14 to day 28, p.o.), sitagliptin (40 mg/Kg, p.o.), or the combination of HC extract and sitagliptin) at the designated dose was fed to each mice by oral gavage from day 1, and continued for 27 consecutive days to day 28. […] Blood glucose, insulin, glucagon, glycated haemoglobin (HbA1c) levels were measured on designated days after overnight fasting. Then, oral glucose tolerance test (OGTT) was performed to evaluate effects of respective treatments on glucose homeostasis. Body weight of each test animal was also measured during the study period. The db/db mice were randomly divided into 4 groups: (1) the vehicle control group, (2) the HC extract (80 mg/kg), (3) the sitagliptin (40 mg/Kg) group, and […] the HC extract (80 mg/kg)+sitagliptin (40 mg/Kg) group. The mice were fasted for 5 hours and then respectively received the indicated treatments. […] The animals were treated by the manner described in the “Material and Methods” section.

For the molecule `N[C@@H](CC(=O)N1CCn2c(nnc2C(F)(F)F)C1)Cc1cc(F)c(F)cc1F` [sitagliptin], the “reduction in the level of total blood glucose (FIG. 3)” value (30 minutes time point post glucose treatment) was “about 11.3%”. Besides, the “effect on fasting blood glucose level (FIG. 2)” value (combination judged 30 minutes post glucose treatment vs either alone) is listed as “reduction in the fasting blood glucose level”.
